Test system: VA-ES-BJ tumor spheroid viability
Assay: Anticancer human tumor VA-ES-BJ cell line growth inhibition;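 also: spheroids exposed to compounds for seven days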;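 as to viability, T/C: percent of DMSO vehicle control viability so 100% = untreated growth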
Details: spheroids with HUVEC and MSC; for viability, T/C: stronger effect = lower value
Summary of the method: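 Complex tumor spheroids combined malignant cells with endothelial cells and mesenchymal stem cells. DNA-damaging drugs and DNA repair inhibitors were tested alone and in combination, at half-log dilutions down from clinical Cmax (top 10 microM if Cmax unknown), 0.25% DMSO final.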

With `[2H]c1nc(C)nc([2H])c1-c1cc(NC[C@@H](C)c2cccc3c(C(=O)NC)ccnc23)ncn1` + COc1cc2c(cc1O)CCNC21CSC2c3c(OC(C)=O)c(C)c4c(c3C(COC1=O)N1C(O)C3Cc5cc(C)c(OC)c(O)c5C(C21)N3C)OCO4 the IC50 (curve of first compound, second compound 30 pM) was over 10 µM, the IC50 (curve of first compound, second compound 94.9 pM) was over 10 µM and the IC50 (curve of first compound, second compound 0.0003 µM) was under 0.0316 µM. For the same molecule, the IC50 (curve of first compound, second compound 0.000949 µM) was under 0.0316 µM, the IC50 (curve of first compound, second compound 0.003 µM) was under 0.0316 µM and the viability, T/C (second compound 30 pM, first compound 0.0316 µM) was 75.6%. The viability, T/C (second compound 30 pM, first compound 0.1 µM) was 78.4%, the viability, T/C (second compound 30 pM, first compound 0.316 µM) was 81.4% and the viability, T/C (second compound 30 pM, first compound 1 µM) was 81.9%. The viability, T/C (second compound 30 pM, first compound 3.16 µM) was 85.2%, the viability, T/C (second compound 30 pM, first compound 10 µM) was 87.5% and the viability, T/C (second compound 94.9 pM, first compound 0.0316 µM) was 72.9%. The viability, T/C (second compound 94.9 pM, first compound 0.1 µM) was 74%, the viability, T/C (second compound 94.9 pM, first compound 0.316 µM) was 83.1% and the viability, T/C (second compound 94.9 pM, first compound 1 µM) was 81%. For the same molecule, the viability, T/C (second compound 94.9 pM, first compound 3.16 µM) was 82.6%, the viability, T/C (second compound 94.9 pM, first compound 10 µM) was 76.8% and the viability, T/C (second compound 0.0003 µM, first compound 0.0316 µM) was 46.8%. The viability, T/C (second compound 0.0003 µM, first compound 0.1 µM) was 40.9%, the viability, T/C (second compound 0.0003 µM, first compound 0.316 µM) was 43.9% and the viability, T/C (second compound 0.0003 µM, first compound 1 µM) was 42.1%. It also gave a viability, T/C (second compound 0.0003 µM, first compound 3.16 µM) of 36%, a viability, T/C (second compound 0.0003 µM, first compound 10 µM) of 38.4% and a viability, T/C (second compound 0.000949 µM, first compound 0.0316 µM) of 3.46%. It also gave a viability, T/C (second compound 0.000949 µM, first compound 0.1 µM) of 1.96%, a viability, T/C (second compound 0.000949 µM, first compound 0.316 µM) of 3.4% and a viability, T/C (second compound 0.000949 µM, first compound 1 µM) of 2.92%. For the same molecule, the viability, T/C (second compound 0.000949 µM, first compound 3.16 µM) was 2.41%, the viability, T/C (second compound 0.000949 µM, first compound 10 µM) was 1.53% and the viability, T/C (second compound 0.003 µM, first compound 0.0316 µM) was 0.81%. The viability, T/C (second compound 0.003 µM, first compound 0.1 µM) was 0.92%, the viability, T/C (second compound 0.003 µM, first compound 0.316 µM) was 0.98% and the viability, T/C (second compound 0.003 µM, first compound 1 µM) was 1.25%. The viability, T/C (second compound 0.003 µM, first compound 3.16 µM) was 1.28% and the viability, T/C (second compound 0.003 µM, first compound 10 µM) was 2.09%.

`Cc1cc(C)c(CNC(=O)c2cc(-c3ccc(CN4CCOCC4)cc3)cc3c2cnn3C2CCCC2)c(=O)[nH]1` + Cn1nnc2c(C(N)=O)ncn2c1=O was tested, and the IC50 (curve of first compound, second compound 1 µM) was over 10 µM, the IC50 (curve of first compound, second compound 3.16 µM) was over 10 µM and the IC50 (curve of first compound, second compound 10 µM) was over 10 µM. It also gave an IC50 (curve of first compound, second compound 31.6 µM) of over 10 µM, an IC50 (curve of first compound, second compound 100 µM) of over 10 µM and a viability, T/C (second compound 1 µM, first compound 0.0316 µM) of 114%. For the same molecule, the viability, T/C (second compound 1 µM, first compound 0.1 µM) was 97.9%, the viability, T/C (second compound 1 µM, first compound 0.316 µM) was 101% and the viability, T/C (second compound 1 µM, first compound 1 µM) was 113%. The viability, T/C (second compound 1 µM, first compound 3.16 µM) was 117%, the viability, T/C (second compound 1 µM, first compound 10 µM) was 104% and the viability, T/C (second compound 3.16 µM, first compound 0.0316 µM) was 99.2%. It also gave a viability, T/C (second compound 3.16 µM, first compound 0.1 µM) of 102%, a viability, T/C (second compound 3.16 µM, first compound 0.316 µM) of 92.7% and a viability, T/C (second compound 3.16 µM, first compound 1 µM) of 97.6%. It also gave a viability, T/C (second compound 3.16 µM, first compound 3.16 µM) of 110%, a viability, T/C (second compound 3.16 µM, first compound 10 µM) of 101% and a viability, T/C (second compound 10 µM, first compound 0.0316 µM) of 102%. For the same molecule, the viability, T/C (second compound 10 µM, first compound 0.1 µM) was 100%, the viability, T/C (second compound 10 µM, first compound 0.316 µM) was 101% and the viability, T/C (second compound 10 µM, first compound 1 µM) was 109%. The viability, T/C (second compound 10 µM, first compound 3.16 µM) was 108%, the viability, T/C (second compound 10 µM, first compound 10 µM) was 104% and the viability, T/C (second compound 31.6 µM, first compound 0.0316 µM) was 91.2%. For the same molecule, the viability, T/C (second compound 31.6 µM, first compound 0.1 µM) was 96.8%, the viability, T/C (second compound 31.6 µM, first compound 0.316 µM) was 94.8% and the viability, T/C (second compound 31.6 µM, first compound 1 µM) was 110%. The viability, T/C (second compound 31.6 µM, first compound 3.16 µM) was 104%, the viability, T/C (second compound 31.6 µM, first compound 10 µM) was 96% and the viability, T/C (second compound 100 µM, first compound 0.0316 µM) was 103%. The viability, T/C (second compound 100 µM, first compound 0.1 µM) was 108%, the viability, T/C (second compound 100 µM, first compound 0.316 µM) was 92.1% and the viability, T/C (second compound 100 µM, first compound 1 µM) was 102%. It also gave a viability, T/C (second compound 100 µM, first compound 3.16 µM) of 122% and a viability, T/C (second compound 100 µM, first compound 10 µM) of 109%.

With `CC[C@@]1(O)C(=O)OCc2c1cc1n(c2=O)Cc2cc3c(CN(C)C)c(O)ccc3nc2-1` the viability, T/C (compound 0.003 µM) was 94% [middle of 10 runs], the viability, T/C (compound 0.0949 µM) was 7.65% [middle of 10 runs] and the viability, T/C (compound 0.3 µM) was 5.65% [middle of 10 runs]. The IC50 (compound alone, run of 12/02/2019) was 21.8 nM [middle of 5 runs] and the IC50 (compound alone, run of 12/12/2019) was 28.5 nM [middle of 5 runs].
